Reference: patent US7412279B2, “Systems and methods for targeted magnetic resonance imaging of the vascular system” (Epix Pharmaceuticals, Inc., priority 2001, dated 2008)

Assays:
[1] = tested on: thrombus; experiment: In vivo MRI of a jugular vein thrombus in the guinea pig, extracellular vascular agent followed by targeted agent; set-up: species or system guinea pig (Hartley male); details: vascular MR image
Experimental: A 600 g guinea pig (Hartley male) was anaesthetized with a cocktail of Ketamine (50 mg/kg), Aceapromazine (2.5 mg/kg), and Rompon (5 mg/kg), and anesthesia maintained with sodium pentobarbital (approx.35 mg/kg as needed). An incision was made in the throat and one of the jugular veins was isolated. A 1 cm section of the jugular vein was isolated with vascular clamps. Freshly drawn blood from the animal (50 μL) was mixed with human thrombin (50 uL, 4 units) and injected into the clamped segment of the vein. Four minutes after injection, the clamps were removed and the thrombus was allowed to age for 30 minutes.
The animal was placed inside a General Electric Signa LxCVi 1.5 tesla scanner and imaged using a 3D RF spoiled gradient echo sequence (SPGR) with the following parameters TR=22 ms, TE=3.1 ms, flip angle=40 degree, field of view=8 cm, acquisition bandwith=31.25 kHz. After one scan, an extracellular vascular MRI contrast agent, GdDTPA (Magnevist®), 100 μmol/kg, was injected via a catheter in the carotid artery. The image sequence was repeated 5 times over the next 30 minutes to acquire the vascular MRI data set. […]

[2] = tested on: thrombus; experiment: In vivo protocol: vascular agent followed by targeted agent, guinea pig jugular vein thrombus; set-up: species or system guinea pig (Hartley male); details: Example 1, 100 μmol/kg
Experimental: One procedure for in vivo imaging of a stationary target within the vascular system (e.g., a thrombus) with a vascular agent (e.g., an extracellular contrast agent or a blood pool agent), and a targeted contrast agent is as follows: A 600 g guinea pig (Hartley male) is anaesthetized. An incision is made in the throat and one of the jugular veins is isolated. A 1 cm section of the jugular vein is isolated with vascular clamps. Freshly drawn blood from the animal (50 μL) is mixed with human thrombin (50 μL, 4 units) and injected into the clamped segment of the vein. Four minutes after injection, the clamps are removed and the thrombus is allowed to age for 30 minutes. GdDTPA (Magnevist®), 100 μmol/kg, an extracellular contrast agent, is injected and the throat area of the guinea pig is imaged using the following pulse sequence on a GE Medical Systems 1.5T MRI: Tl-weighted SPGR, TE=3.1, TR=22, flip angle=40°. […] After 30 minutes, GdDTPA has cleared from the blood and a stationary target (thrombus) targeted MRI agent is injected at a dose of 6 μmol/kg. […]

[3] = tested on: thrombus; experiment: In vivo MRI of thrombi in the rabbit carotid artery (crush injury) and jugular vein; set-up: species or system New Zealand White rabbit
Experimental: A 2.5 kg female New Zealand White rabbit was anesthetized with a cocktail of Ketamine (50 mg/kg), Aceapromazine (2.5 mg/kg), and Rompon (5 mg/kg), and anesthesia maintained with sodium pentobarbital (approx.35 mg/kg as needed). An i.v. catheter (24 g) was placed into the ear vein and the ear artery. The jugular vein and carotid artery were isolated. A stenosis was created in the carotid artery by placing an 18 g needle on top of the vessel and then suturing it into place with 3-0 suture. The needle was then removed. A 5 mm portion of the artery was then segmented off distally to the stenosis with microvascular clips. The artery was crushed twice along the 5 mm section. The proximal vascular clip was released to allow blood flow into the section for circa 3 sec. The clip was reapplied and the artery was crushed twice again along the 5 mm section. After 4 minutes, the clips were removed. A 5 mm segment of the jugular vein was isolated with microvascular clips. A thrombus was created by injecting 100 μL of a 3.7 units thrombin, 0.06 M CaCl2, rabbit whole blood mixture. After 4 minutes, the clips were removed.
The thrombi were allowed to age for 50 minutes. A 1.0 mL solution of a 5 mM targeted contrast agent (Structure III, 2 μmol/kg) was administered via the ear vein. […]

Compound | enhancement of the vascular system ([1]; Example 10, 100 μmol/kg via carotid artery catheter) [fold] | enhancement of the thrombus ([1]; Example 10, 100 μmol/kg) | enhancement of the thrombus [2] | enhancement of the vasculature ([2]; immediately after injection) | visibility of blood vessels (carotid arteries, jugular veins) in MIP ([3]; Example 6, 80 μmol Gd/kg, image acquired immediately after injection) | signal intensity of both the blood and thrombus ([3]; Example 9, 80 μmol Gd/kg, injected 80 minutes after the targeted agent)
O=C([O-])CN(CCN(CC(=O)[O-])CC(=O)O)CCN(CC(=O)[O-])CC(=O)O.[Gd+3] [GdDTPA] | 4 | no observable enhancement | no enhancement | some enhancement |  | 
Gd-DTPA-BSA |  |  |  |  | readily visible | increased dramatically
